Series [1] can be described thus: Rat PK following intravenous and oral dosing. Type of series: in vivo, male Sprague-Dawley rats.
Series [2] is described as follows: Dog PK following IV and oral dosing. Format: in vivo, male Beagle dogs. On the set-up: half-life / clearance / AUC(0-inf): dose or concentration left out as unconfirmed. As to the method:
PK in dogs was determined following IV and oral dosing.
For the oral (PO) experiments, two groups of 5 male Beagle dogs each were used. […] IV doses were administered through an indwelling catheter in the cephalic vein. Following dose administration, the catheter was flushed with ca. 3 mL of saline. Oral suspension doses were delivered to the stomach using a syringe and gavage tube. Following oral dosage administration, the gavage tube was flushed with approximately 10 mL of water to ensure complete delivery of the full dose.
Plasma and urine samples were collected as follows: for the PO experiments, samples were collected at 15 min, 30 min, 1 hour, 2 hours, 3 hours, 4 hours, 6 hours, 8 hours, 24 hours, 32 hours and 48 hours post-dosing; for the IV experiments, samples were collected at 2 min, 5 min, 15 min, 30 min, 1 hour, 2 hours, 3 hours, 4 hours, 6 hours, 8 hours, 24 hours, 32 hours and 48 hours post-dosing. Blood samples (2 mL) were collected from the jugular, cephalic or saphenous veins. These samples were kept on ice until processed for plasma. Blood samples were centrifuged at 3200 rpm for 10 minutes at approximately 5° C. within 1 hour of collection. Plasma was split into two approximately equal aliquots, and directly transferred to a 96-well plate tube (1.1 mL). Plug caps were placed on the tubes and the tubes frozen at approximately −70° C. and stored until analysis.
Urine was collected from each animal by diversion from a urine collection pan placed beneath the cage of each animal into an appropriate collection container, surrounded by wet ice or ice packs throughout the collection. The total volume of urine collected at each interval was measured and recorded and a single 10 mL aliquot was collected and stored frozen at approximately −70° C. until analysis.
Plasma and urine were collected and analyzed for the presence of Compound I-1 and Intermediate 3 derived from Compound I-1.
Intermediate 3, Compound I-1 and the internal standard (IS, Compound Z) were extracted from plasma by precipitation. Samples were analyzed using liquid chromatography (LC) with tandem mass spectrometric detection (MS/MS) using electrospray ionization. The standard curve range was from 0.1 to 400 ng/mL.
Thawed plasma samples and the required amount of plasma for standards, blanks and dilutions. Prepared crash solution: room temp ACN containing 1 ng/mL Compound Z as Internal Standard. Created a 1× mixed (Intermediate 3 and Compound I-1) standard curve by diluting the 100× stocks (5 uL of each 100× standard into 490 uL of plasma). Transferred 50 uL of each plasma sample/dilution, standard, or blank. Added 200 uL of the crash solution containing IS. Vortexed for 5 minutes. Centrifuged at 16,000 g at room temperature for 10 min. Transferred 200 uL of each supernatant to a plate. Dried under nitrogen in a TurboVap at 55° C. Resuspended each sample in 50 uL of 0.1% Formic Acid, covered and vortexed. Analyzed by LC-MS/MS.

The mark [3] stands for this setting: male, Beagle, plasma, dog, Compound I-1 0.36 mpk IV in PBS, analyte Compound I-1.
Setting [4] is: plasma, Intermediate 3 dosed 1 mg/kg IV in PEG.
The mark [5] stands for this setting: plasma, Intermediate 3 dosed 3.0 mg/kg PO.
[6] abbreviates: male, Beagle, plasma, dog PO, Intermediate 3 in PEG400 capsules (2 mg/kg).

For the compound `O=P(O)(O)OC(CNc1nc(-c2cc(-c3ccon3)n(Cc3ccccc3F)n2)ncc1F)(C(F)(F)F)C(F)(F)F` [Compound I-1], the “Vol. of Dist” value in series [1] (Compound I-1 1 mg/kg IV in PBS, analyte Compound I-1) turned out to be 4.4 ± 2.6 L/kg. The “Vol. of Dist” value in series [2] (dog, Compound I-1 0.36 mpk IV in PBS, analyte Compound I-1) was 0.09 ± 0.03 L/kg. The “average conversion to the parent” value in series [2] (dog, Compound I-1 administered IV) was found to be 95%. For the same compound, the “AUC compared with parent dosed in PEG” value in series [2] (dog, Compound I-1 dosed IV in PBS) was “comparable AUC to Intermediate 3”. For the same compound, the “prodrug observed in plasma” value in series [2] (dog, after PO administration of Compound I-1) was “Low levels”. Also, the “prodrug found in urine” value in series [2] (dog, after dosing of Compound I-1) was “Negligible amounts”. In series [2] (male, Beagle, dog, plasma, iv, Compound I-1 IV in PBS, analyte Compound I-1), this compound had a half-life of roughly 15 min. Also, in series [2] (setting [3]), the AUC(0-inf) is 1550 ± 601 ng·h/mL, the Cmax was 5110 ± 2150 ng/mL and the clearance was 8.3 ± 3.1 mL/min/kg.

As to `OC(CNc1nc(-c2cc(-c3ccon3)n(Cc3ccccc3F)n2)ncc1F)(C(F)(F)F)C(F)(F)F` [Intermediate 3], the “Vol. of Dist” value in series [1] (Intermediate 3 dosed 1 mg/kg IV in PEG) was found to be 9.5 L/kg. Also, the “Bioavail. (%)” value in series [1] (Intermediate 3 dosed 3.0 mg/kg PO) stood at 102%. In addition, in series [1] (setting [4]), the AUC(0-inf) stood at 1100 ng·h/mL, the peak level (Cmax) was 227 ng/mL and the clearance amounted to 16 mL/min/kg. Moreover, in series [1] (setting [5]), the AUC(0-t) came to 3600 ± 280 ng·h/mL, the concentration peaked (Cmax) at 250 ± 10 ng/mL and the Tmax was 8 h. The same compound gave a half-life in series [1] (plasma, iv, 1 mg/kg, Intermediate 3 dosed 1 mg/kg IV in PEG) of 426 min. For the same compound, the “Cmax/C24 (ratio)” value in series [2] (dog PO, Intermediate 3 in PEG400 capsules (2 mg/kg)) was determined as 3.6 ± 1.1 ratio. In series [2] (setting [6]), the AUC was found to be 5190 ± 1410 ng·h/mL, the Cmax is 307 ± 116 ng/mL and the Tmax stood at 1.5 ± 1.2 h. Besides, in series [2] (male, Beagle, plasma, dog PO, Intermediate 3 in PEG400 capsules (2 mg/kg), read-out: Bioavailability (% F)), the bioavailability amounted to 64 ± 12.5%.

Source of the values: patent US10927136B2, “Phosphorus prodrugs of pyrazolo-substituted pyrimidine sGC stimulators” (Cyclerion Therapeutics, Inc., priority 2016, dated 2021).
